What is called IC50 is the concentration that gives 50% inhibition.

Drawing on patent publication US9890185B2, “Urea derivatives useful as kinase inhibitors” (Respivert Limited, priority 2013, dated 2018), this text covers IC50 for 20 molecules.

Experiment [1] deals with PBMCs. As to the kind of experiment: LPS-induced IL-8 release in PBMC cells (assay b). The experiment is classed as cell-based, human. The settings on record: LPS-stimulated PBMCs, read-out: IC50 Values for Inhibition of Cytokine Release, PBMCs IL-8. The protocol: Peripheral blood mononuclear cells (PBMCs) from healthy subjects are separated from whole blood using a density gradient (Lymphoprep, Axis-Shield Healthcare). The PBMCs are seeded in 96 well plates and treated with compounds at the desired concentration for 2 hours before addition of 1 ng/mL LPS (Escherichia Coli 0111:B4 from Sigma Aldrich) for 24 hours under normal tissue culture conditions (37° C., 5% CO2). The supernatant is harvested for determination of IL-8 and TNFα concentrations by sandwich ELISA (Duo-set, R&D systems) and read on the fluorescence microplate reader (Varioskan® Flash, ThermoFisher Scientific). The concentration at 50% inhibition (IC50) of IL-8 and TNFα production is calculated from the dose response curve.

For experiment [2], the target named is GSK 3α (Homo sapiens (Human), UniProt P49840). As to the kind of experiment: GSK 3α enzyme inhibition (FRET, Z-LYTE, Method 2). The note with it: read-out: IC50 Values for Enzyme Inhibition, GSK3α. The experiment is classed as biochemical. The protocol:
The enzyme inhibitory activities of compounds disclosed herein are determined by FRET using synthetic peptides labelled with both donor and acceptor fluorophores (Z-LYTE, Invitrogen Ltd., Paisley, UK).
The following two assay variants can be used for determination of GSK 3α inhibition.
The inhibitory activities of compounds of the invention against the GSK 3α enzyme isoform (Invitrogen), are evaluated by determining the level of activation/phosphorylation of the target peptide. The GSK3-α protein (500 ng/mL, 2.5 μL) is mixed with the test compound (2.5 μL at either 4 μg/mL, 0.4 μg/mL, 0.04 μg/mL, or 0.004 μg/mL) for 2 hr at RT. The FRET peptide (8 μM, 2.5 μL), which is a phosphorylation target for GSK3α, and ATP (40 μM, 2.5 μL) are then added to the enzyme/compound mixture and the resulting mixture incubated for 1 hr. Development reagent (protease, 5 μL) is added for 1 hr prior to detection in a fluorescence microplate reader (Varioskan® Flash, ThermoFisher Scientific).
In all cases, the site-specific protease cleaves non-phosphorylated peptide only and eliminates the FRET signal. Phosphorylation levels of each reaction are calculated using the ratio of coumarin emission (donor) over fluorescein emission (acceptor), for which high ratios indicate high phosphorylation and low ratios indicate low phosphorylation levels. The percentage inhibition of each reaction is calculated relative to non-inhibited control and the 50% inhibitory concentration (IC50 value) is then calculated from the concentration-response curve.
This method follows the same steps as Method 1 above, but utilises a shorter period of mixing of the test compound (105 minutes instead of 2 hours) with the GSK3-α protein.

Where two headings read alike, the source gives them in different places.

GSK 3α, sequence (P49840 whole entry): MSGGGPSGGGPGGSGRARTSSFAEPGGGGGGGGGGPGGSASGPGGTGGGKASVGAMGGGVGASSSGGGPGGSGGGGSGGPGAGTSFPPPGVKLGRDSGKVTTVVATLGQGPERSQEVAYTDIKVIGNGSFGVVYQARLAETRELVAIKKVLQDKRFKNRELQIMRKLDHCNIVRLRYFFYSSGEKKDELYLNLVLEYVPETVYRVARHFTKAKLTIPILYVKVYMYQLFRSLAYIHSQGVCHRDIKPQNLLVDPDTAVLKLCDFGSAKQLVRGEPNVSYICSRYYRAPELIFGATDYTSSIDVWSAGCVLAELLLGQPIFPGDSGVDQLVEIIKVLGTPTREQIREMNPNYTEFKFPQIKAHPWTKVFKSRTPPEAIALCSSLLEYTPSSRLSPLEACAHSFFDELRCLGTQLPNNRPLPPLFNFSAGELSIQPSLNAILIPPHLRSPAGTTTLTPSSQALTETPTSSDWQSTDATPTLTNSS

Take `COc1c(NC(=O)Nc2ccc(Oc3ccnc(Nc4cnn(C)n4)c3)c3ccccc23)cc(C(C)(C)C)cc1P(C)(C)=O` [15(ar), 1-(5-(tert-butyl)-3-(dimethylphosphoryl)-2-methoxyphenyl)-3-(4-((2-((2-methyl-2H-1,2,3-triazol-4-yl)amino)pyridin-4-yl)oxy)naphthalen-1-yl)urea]: the IC50 in experiment [1] (Homo sapiens, PBMC) worked out at 0.8 nM; in experiment [2] it was 356 nM.

On to `COc1ccccc1Nc1nccc(Oc2ccc(NC(=O)Nc3cc(C(C)(C)C)cc(P(C)(C)=O)c3OC)c3ccccc23)n1` [15(f), 1-(5-(tert-butyl)-3-(dimethylphosphoryl)-2-methoxyphenyl)-3-(4-((2-((2-methoxy-phenyl)amino)pyrimidin-4-yl)oxy)naphthalen-1-yl)urea], for which the 50% inhibitory concentration (IC50) in experiment [1] came out at 26.2 nM; in experiment [2], 3100 nM.

For the molecule `COc1ccc(Nc2nccc(Oc3ccc(NC(=O)Nc4cc(C(C)(C)C)cc(P(C)(C)=O)c4OC)c4ccccc34)n2)cc1` [15(h), 1-(5-(tert-butyl)-3-(dimethylphosphoryl)-2-methoxyphenyl)-3-(4-((2-((4-methoxy-phenyl)amino)pyrimidin-4-yl)oxy)naphthalen-1-yl)urea], the concentration for half-maximal inhibition (IC50) turned out to be 4.6 nM in experiment [1] (Homo sapiens, PBMC) and 779 nM in experiment [2].

Regarding `COc1ccc(Nc2nccc(Oc3ccc(NC(=O)Nc4cc(C(C)(C)C)cc(P(C)(C)=O)c4OC)c4ccccc34)n2)cc1OC` [15(i), 1-(5-(tert-butyl)-3-(dimethylphosphoryl)-2-methoxyphenyl)-3-(4-((2-((3,4-dimethoxyphenyl)amino)pyrimidin-4-yl)oxy)naphthalen-1-yl)urea], the IC50 in experiment [1] (Homo sapiens, PBMC) stood at 1.5 nM; in experiment [2], 359 nM.

`COc1c(NC(=O)Nc2ccc(Oc3ccnc(Nc4ccccc4)n3)c3ccccc23)cc(C(C)(C)C)cc1[S+](C)[O-]` (stereo not shown) [15(k), 1-(5-(tert-butyl)-2-methoxy-3-(methylsulfinyl)phenyl)-3-(4-((2-(phenylamino)pyrimidin-4-yl)oxy)naphthalen-1-yl)urea]: the IC50 turned out to be 5.6 nM in experiment [1] (Homo sapiens, PBMC) and 1170 nM in experiment [2].

Regarding `COc1c(NC(=O)Nc2ccc(Oc3ccnc(Nc4ccccc4)n3)c3ccccc23)cc(C(C)(C)C)cc1S(C)(=O)=O` [15(l), 1-(5-(tert-butyl)-2-methoxy-3-(methylsulfonyl)phenyl)-3-(4-((2-(phenylamino)pyrimidin-4-yl)oxy)naphthalen-1-yl)urea], the IC50 in experiment [1] (Homo sapiens, PBMC) is 17.5 nM; in experiment [2], 8220 nM.

For the molecule `COc1c(CS(C)(=O)=O)cc(C(C)(C)C)cc1NC(=O)Nc1ccc(Oc2ccnc(Nc3ccccc3)n2)c2ccccc12` [15(n), 1-(5-(tert-butyl)-2-methoxy-3-((methylsulfonyl)methyl)phenyl)-3-(4-((2-(phenylamino)-pyrimidin-4-yl)oxy)naphthalen-1-yl)urea], the IC50 was 13.5 nM in experiment [1] (Homo sapiens, PBMC) and 1640 nM in experiment [2].

With `COc1c(NC(=O)Nc2ccc(Oc3ccnc(Nc4ccccn4)n3)c3ccccc23)cc(C(C)(C)C)cc1P(C)(C)=O` [15(o), 1-(5-(tert-butyl)-3-(dimethylphosphoryl)-2-methoxyphenyl)-3-(4-((2-(pyridin-2-ylamino)pyrimidin-4-yl)oxy)naphthalen-1-yl)urea], the IC50 worked out at 20.4 nM in experiment [1] (Homo sapiens, PBMC) and 5800 nM in experiment [2].

For `COc1c(NC(=O)Nc2ccc(Oc3ccnc(Nc4ccccc4)n3)c3ccccc23)cc(C(C)(C)C)cc1C(=O)NCCN1CCOCC1` [15(p), 5-(tert-butyl)-2-methoxy-N-(2-morpholinoethyl)-3-(3-(4-((2-(phenylamino)pyrimidin-4-yl)oxy)naphthalen-1-yl)ureido)benzamide], the IC50 was determined as 9.4 nM in experiment [1] (Homo sapiens, PBMC) and 1950 nM in experiment [2].

Take `COc1c(NC(=O)Nc2ccc(Oc3ccnc(Nc4cncnc4)n3)c3ccccc23)cc(C(C)(C)C)cc1P(C)(C)=O` [15(r), 1-(5-(tert-butyl)-3-(dimethylphosphoryl)-2-methoxyphenyl)-3-(4-((2-(pyrimidin-5-ylamino)pyrimidin-4-yl)oxy)naphthalen-1-yl)urea]: the concentration for half-maximal inhibition (IC50) in experiment [1] (Homo sapiens, PBMC) was found to be 4.8 nM; in experiment [2] it was 188 nM.

As to `COc1c(NC(=O)Nc2ccc(Oc3ccnc(Nc4cnn(C)c4)n3)c3ccccc23)cc(C(C)(C)C)cc1P(C)(C)=O` [15(s), 1-(5-(tert-butyl)-3-(dimethylphosphoryl)-2-methoxyphenyl)-3-(4-((2-((1-methyl-1H-pyrazol-4-yl)amino)pyrimidin-4-yl)oxy)naphthalen-1-yl)urea], the 50% inhibitory concentration (IC50) worked out at 1.4 nM in experiment [1] (Homo sapiens, PBMC) and 239 nM in experiment [2].

Consider `COc1c(NC(=O)Nc2ccc(Oc3ccnc(Nc4cccc(OS(C)(=O)=O)c4)n3)c3ccccc23)cc(C(C)(C)C)cc1P(C)(C)=O` [15(t), 3-((4-((4-(3-(5-(tert-butyl)-3-(dimethylphosphoryl)-2-methoxyphenyl)ureido)-naphthalen-1-yl)oxy)pyrimidin-24)amino)phenyl methanesulfonate], for which the IC50 in experiment [1] (Homo sapiens, PBMC) came to 0.5 nM; in experiment [2], 283 nM.

Take `COc1c(NC(=O)Nc2ccc(Oc3ccnc(Nc4ccccc4)n3)c3ccccc23)cc(C(C)(C)C)cc1C(=O)NCCN1CCCC1` [15(u), 5-(tert-butyl)-2-methoxy-3-(3-(4-((2-(phenylamino)pyrimidin-4-yl)oxy)naphthalen-1-yl)ureido)-N-(2-(pyrrolidin-1-yl)ethyl)benzamide]: the half-inhibitory concentration (IC50) came out at 7.9 nM in experiment [1] (Homo sapiens, PBMC) and 3060 nM in experiment [2].

As to `COc1c(NC(=O)Nc2ccc(Oc3ccnc(Nc4ccc5c(c4)NC(=O)C5)n3)c3ccccc23)cc(C(C)(C)C)cc1P(C)(C)=O` [15(v), 1-(5-(tert-butyl)-3-(dimethylphosphoryl)-2-methoxyphenyl)-3-(4-((2-((2-oxoindolin-6-yl)amino)pyrimidin-4-yl)oxy)naphthalen-1-yl)urea], the half-inhibitory concentration (IC50) in experiment [1] (Homo sapiens, PBMC) was found to be 2.8 nM; in experiment [2] it was 302 nM.

In the case of `COc1c(NC(=O)Nc2ccc(Oc3ccnc(Nc4ccc5c(c4)OCCO5)n3)c3ccccc23)cc(C(C)(C)C)cc1P(C)(C)=O` [15(w), 1-(5-(tert-butyl)-3-(dimethylphosphoryl)-2-methoxyphenyl)-3-(4-((2-((2,3-dihydrobenzo[b][1,4]dioxin-6-yl)amino)pyrimidin-4-yl)oxy)naphthalen-1-yl)urea], the IC50 in experiment [1] (Homo sapiens, PBMC) worked out at 10.5 nM; in experiment [2], 1670 nM.

With `COc1c(NC(=O)Nc2ccc(Oc3ccnc(Nc4ccc5c(c4)CS(=O)(=O)C5)n3)c3ccccc23)cc(C(C)(C)C)cc1P(C)(C)=O` [15(y), 1-(5-(tert-butyl)-3-(dimethylphosphoryl)-2-methoxyphenyl)-3-(4-((2-((2,2-dioxido-1,3-dihydrobenzo[c]thiophen-5-yl)amino)pyrimidin-4-yl)oxy)naphthalen-1-yl)urea], the IC50 in experiment [1] (Homo sapiens, PBMC) was 0.9 nM; in experiment [2] it was 194 nM.

Consider `COc1c(NC(=O)Nc2ccc(Oc3ccnc(Nc4cnoc4)n3)c3ccccc23)cc(C(C)(C)C)cc1P(C)(C)=O` [15(z), 1-(5-(tert-butyl)-3-(dimethylphosphoryl)-2-methoxyphenyl)-3-(4-((2-(isoxazol-4-ylamino)pyrimidin-4-yl)oxy)naphthalen-1-yl)urea], for which the IC50 in experiment [1] (Homo sapiens, PBMC) worked out at 36.1 nM; in experiment [2], 1500 nM.

With `COc1c(CN(C)C(C)=O)cc(C(C)(C)C)cc1NC(=O)Nc1ccc(Oc2ccnc(Nc3ccccc3)c2)c2ccccc12` [38(aa), N-(5-(tert-Butyl)-2-methoxy-3-(3-(4-((2-(phenylamino)pyridin-4-yl)oxy)naphthalen-1-yl)ureido)benzyl)-N-methylacetamide], the half-maximal inhibitory concentration (IC50) came to 2.5 nM in experiment [1] (Homo sapiens, PBMC) and 8290 nM in experiment [2].

As for `COc1cc(Nc2cc(Oc3ccc(NC(=O)Nc4cc(C(C)(C)C)cc(CNC(C)=O)c4OC)c4ccccc34)ccn2)cc(C(N)=O)c1` [38(ac), 3-((4-((4-(3-(3-(Acetamidomethyl)-5-(tert-butyl)-2-methoxyphenyl)ureido)naphthalen-1-yl)oxy)pyridin-2-yl)amino)-5-methoxybenzamide], the half-maximal inhibitory concentration (IC50) was 0.4 nM in experiment [1] (Homo sapiens, PBMC) and 834 nM in experiment [2].

In the case of `COc1cc(Nc2cc(Oc3ccc(NC(=O)Nc4cc(C(C)(C)C)cc(CC(N)=O)c4OC)c4ccccc34)ccn2)cc(P(C)(C)=O)c1` [38(ae), 2-(5-(tert-Butyl)-3-(3-(4-((2-((3-(dimethylphosphoryl)-5-methoxyphenyl)amino)pyridin-4-yl)oxy)naphthalen-1-yl)ureido)-2-methoxyphenyl)acetamide], the IC50 was determined as 1.2 nM in experiment [1] (Homo sapiens, PBMC) and 800 nM in experiment [2].
